Reference: US11612652B2, “Lipids as synthetic vectors to enhance antigen processing and presentation ex-vivo in dendritic cell therapy” (PDS Biotechnology Corporation, priority 2015, dated 2023)
“Also recorded” adds a separate entry of the source.

What was measured:
BMDC / OT-1 CD8+ T cells = assay: OT1 T cell proliferation (3H-thymidine uptake), cross-presentation of OVA by BMDC on MHC class I; type: cell-based, mouse; details: for uptake and cross-presentation of OVA by BMDC, OT1 proliferation, CPM of 3H-thymidine uptake: whole OVA and various lipid concentrations, 30 min, three day culture
Description: In the second method, T cells from a TCR transgenic mice (OT-1) were used in which all T cells are specific for an internal peptide of OVA. These T cells will only proliferate if presented with DC which have processed OVA and presented an OVA peptide on MHC class I molecules.
Thus, this represents a stringent assay for cross presentation. BMDC were incubated with different concentrations of the whole OVA protein in the presence or absence of two cationic lipids, either DOTAP or DOTMA for 1 hr at 37° C. The DC were then washed, fixed and added to the OVA peptide specific T cells. […] This response was dose dependent with respect to the OVA concentration, and was even apparent when DC were incubated with OVA at 4° C.
To examine the effect of other cationic lipids and neutral lipids on antigen uptake and cross presentation, BMDC were incubated in the presence of the whole OVA protein and various concentrations of DOTAP DOTMA, DOPC, DOEPC or DDA for 30 min at 37° C. or 4° C. DC were then washed and added to OT1 splenocytes (TCR transgenic T cells specific for the class I restricted OVA peptide […] (SEQ ID NO: 2)) in microtiter plates and cultured for three days at 37° C. […] Control cultures contained OT1 splenocytes and […] (SEQ ID NO: 2) only which bypasses the need for antigen processing.

[1] = previous reported studies; cited from earlier work
TC-1 tumors = assay: Established TC-1 tumor model: tumor microenvironment, tumor volume, ELISPOT; type: in vivo, C57 mice
Description: C57 mice were divided into the following groups of 8 mice per group: R-DOTAP+HPV16 E7 peptide KF18 ([…]) (SEQ ID NO: 4) , GM-CSF+HPV16 E7 peptide KF18, R-DOTAP, GM-C SF, HPV16 E7 peptide KF18, untreated. 1×10^5 TC-1 tumor cells were injected into the flank of the mice on day 0. The various formulations were administered on Days 12 and 19 after tumor implantation. On day 19 4-5 mice per group were sacrificed and a number of evaluations performed to evaluate the immunology of the tumor microenvironment.
RF9 specific dextramer staining and flow cytometry were utilized to quantify the number of HPV-specific CD8+ T-cells that had infiltrated into the tumor micro-environment. The study quantified the number of CD8+ T cells specific to the mouse epitope RF9. These CD8+ T cells were measured as a percentage of all immune cells (CD45, CD3 and CD8) present in the tumor. Antigen specific T cells infiltrating into the tumor were measured using RF9 specific dextramers by flow cytometry. […] Data represents mean±SEM of 4-5 mice in each group.
On Day 19 flow cytometry was used to study the immuno-suppressive tumor microenvironment, specifically the regulatory T cell population. T regulatory cells (CD45+CD3+CD4+CD25+Foxp3+) cells infiltrated into tumors on day 14 and day 19.
Of critical importance to the clinical efficacy of any immunotherapy is the ratio of immune suppressive cells to tumor targeting CD8+ T cells within the tumor microenvironment. A lower ratio of immune suppressor cells to CD8+ T cells promotes improved prognosis for anti-tumor benefit. […] Cationic lipids appear to promote the preferential expansion of the right phenotype of effector T-cells in preference to Tregs.
The various formulations were evaluated for their impact on the established TC-1 tumors in the same study. […] Tumor volumes were measured using calipers. The naïve mice group are tumor bearing mice that remained untreated. The HPV16 E7 peptide used in the vaccine is KF18. […]
In this study, IFN-γ ELISPOT studies were also performed to quantify and understand the “quality” of tumor-specific T-cell generated. […]

[2] = system: BMDC (CD11c positive cells); assay: DQ-OVA uptake and processing by BMDC, flow cytometry; type: cell-based, mouse; details: for enhancement of DQ-OVA uptake and processing compared with known adjuvants (red fluorescence): one hour, 25 μM DOTAP nanoparticles, 10 μg/ml LPS or media alone
Description: In order to determine the effects of cationic lipids on antigen uptake and processing by dendritic cells ex-vivo, a fluorescent ovalbumin protein called DQ-OVA was used. DQ-OVA is non-fluorescent when intact, but emits both red and green fluorescence when the protein is degraded. BMDC were incubated at 37° C. or 4° C. for 1 hr with DQ-OVA alone, or DQ-OVA mixed with different concentrations of the cationic lipid DOTAP. The cells were then washed, fixed, and stained with fluorescent antibodies to CD11c, a marker for dendritic cells. Cells were then analyzed on an LSRII flow cytometer in both red and green fluorescent channels.
This represents the well-known mannose receptor mediated uptake of OVA by DC. […] Graphical representation of the fluorescent uptake of DQ-OVA into BMDC measured by flow cytometry.
This uptake and processing was inhibited at 4° C. confirming that active cytoskeletal rearrangements are required for this type of uptake. […] The effect of R-DOTAP was concentration dependent with 50 uM showing the greatest effect. To determine if the R-DOTAP enhancement of protein uptake is cell dependent, a mouse epithelial cell line was incubated with DQ-OVA under identical conditions as the BMDC. […] Further, they indicate that this enhancement is selective for dendritic cells and not other, non-antigen presenting cell types.
In order to determine whether lipid adjuvants could mediate the same effect as R-DOTAP, BMDC were incubated with DQ-OVA in media alone or with R-DOTAP as described for FIG. 1. In addition, BMDC were incubated under identical conditions with the potent lipid adjuvant lipopolysaccharide (LPS). Mouse bone marrow DC were incubated in the presence of fluorescent DQ-OVA for one hour at either 37° C. or 4° C./azide in the presence of 25 μM DOTAP nanoparticles, 10 μg/ml LPS or media alone, and analyzed by flow cytometry. […] Monophorphoryl lipid-A (MPL) is a lower toxicity derivative of LPS that is now an FDA approved adjuvant in several vaccines.

[3] = system: HPV16-specific CD8+ T-cells; assay: IFN-gamma ELISPOT of splenocytes after vaccination with KF18 HPV peptide formulations; type: in vivo, C57 black mice; details: vaccinated Day 0 and Day 7, sacrificed Day 14
Description: C57 black mice were vaccinated with various formulations: […]
Group 1: KF18 HPV peptide ([…]) (SEQ ID NO: 4)
Group 2: KF18 HPV peptide+R-DOTAP liposomes
Group 3: KF18 HPV peptide+S-DOTAP liposomes
Group 4: KF18 peptide+MPL/Alum adjuvant
5 mice per group were injected with the various formulations. The mice were vaccinated on Day 0 and Day 7 and sacrificed on Day 14. The splenocytes were removed and ELISPOT studies performed. The splenocytes were stimulated with the peptide […] (RF9) (SEQ ID NO: 5), the HPV16 CD8+ T-cell epitope peptide recognized by the C57 mice. […] An additional example of this effect is observed with the cationic lipid DDA. […] However, it has been reported that in order to induce strong antigen-specific T-cell responses that DDA is used in combination with strong adjuvants (Brandt L. et al, ESAT-6 Subunit Vaccination against Mycobacterium tuberculosis, Infect Immun. 2000 February; 68(2): 791-795).

[4] = system: serum cytokines and chemokines; assay: Systemic cytokines in serum after vaccination, Luminex Mouse cytokine 20-plex panel; type: in vivo, Human HLA-A2 mice
Description: This study therefore focused on an evaluation of the systemic presence of cytokines after subcutaneous administration of cationic lipid vaccines. Human HLA-A2 mice that could recognize human HPV antigens were administered high and low doses of R-DOTAP+antigen.
Group 1: • Vaccinate mice with 100 μL of a 1:1 mixture of high dose R-DOTAP (3.4 mg/mL) and sucrose solution.
Group 2: • Vaccinate with 50 μg LPS as a positive control for cytokine induction
Group 3: • Vaccinate mice with 100 μL of high dose R-DOTAP+HPV antigens (1:1 Mixture of RDOTAP 3.4 mg/mL, and HPVMix 0.14 mg/mL)
Group 4: • Vaccinate mice with 100 μL of low dose R-DOTAP+HPV antigens (1:1 Mixture of RDOTAP 0.34 mg/mL, and HPVMix 0.14 mg/mL)
After a single vaccination all mice were bled as follows:
Approximately 200 μL of blood was withdrawn from each mouse at the above specified time points.
The cytokine analysis was performed by Luminex Assay following the manufacturer's instructions.
As a positive control, the mice were also vaccinated with the well-studied toll-like-receptor (TLR) agonist lipopolysaccharide (LPS).
Study Results:Mouse serum was analyzed using a Luminex Mouse cytokine 20-plex panel (cytokines listed below). Cytokine intensity levels were quantitated by comparing to a cytokine standard run in the same plate using Luminex software. […]

With CCCCCCCC/C=C\CCCCCCCC(=O)OC[C@@H](COP(=O)(OCC)OCC[N+](C)(C)C)OC(=O)CCCCCCC/C=C\CCCCCCCC (stereo partly drawn) [DOEPC, 1,2-dioleoyl-sn-glycero-3-ethylphosphocholine] the “uptake and cross-presentation of OVA by BMDC, OT1 proliferation, CPM of 3H-thymidine uptake” value (shortened to “uptake and cross-presentation of OVA”) (BMDC / OT-1 CD8+ T cells) was “facilitated enhanced uptake and cross-presentation of OVA by BMDC; also recorded: showed strong enhancement of antigen presentation”.
For CCCCCCCCCCCCCCCCCC[N+](C)(C)CCCCCCCCCCCCCCCCCC [DDA], the “observation on dilution with OVA” value (BMDC / OT-1 CD8+ T cells) is given as “formed a precipitate when diluted with OVA”, the “uptake and cross-presentation of OVA” value (BMDC / OT-1 CD8+ T cells) is given as “facilitated enhanced uptake and cross-presentation of OVA by BMDC; also recorded: showed strong enhancement of antigen presentation; also recorded: facilitate antigen uptake and presentation” and the “in vivo antigen-specific immune responses” value [1] is given as “neither S-DOTAP nor DDA induced effective in vivo antigen-specific immune responses”.
In the case of GQAEPDRAHYNIVTF [antigen only], the tumor volume (TC-1 tumors; Day 26, calipers) is reported as “about 200 mm^3” and the “effect on established TC-1 tumors” value (TC-1 tumors; formulations on Days 12 and 19, read Day 26) is reported as “did not induce any tumor regression but inhibited tumor growth”.
With “Monophorphoryl lipid-A [MPL, reference compound]” the “enhancement of DQ-OVA uptake and processing compared with known adjuvants (red fluorescence)” value [2] was “showed no ability to facilitate protein uptake in BMDC; also recorded: ineffective in promoting antigen uptake compared to both R-DOTAP and S-DOTAP” and the “HPV-specific CD8+ T-cell response (ELISPOT, RF9 stimulation)” value [3] was “significantly lower CD8+ T-cell response compared to R-DOTAP”.
In the case of CCCCCCCC/C=C\CCCCCCCC(=O)OC[C@H](COP(=O)([O-])OCC[N+](C)(C)C)OC(=O)CCCCCCC/C=C\CCCCCCCC [DOPC, reference compound], the “uptake and cross-presentation of OVA” value (BMDC / OT-1 CD8+ T cells) is reported as “also facilitated uptake and presentation; also recorded: showed some enhancement”.
With lipopolysaccharide [LPS] the “enhancement of DQ-OVA uptake and processing compared with known adjuvants (red fluorescence)” value [2] was “no such enhancement was observed”, the “time to systemic spike in cytokine levels” value ([4]; after vaccination) was ≤ 12 h and the “systemic induction of cytokines and chemokines in serum” value ([4]; single vaccination, pre bleed, 12, 24, 48 hours) was “increases in the systemic levels of IL-12, IP-10, KC, MCP-1 & MIG”.
With CCCCCCCC/C=C\CCCCCCCC(=O)OCC(C[N+](C)(C)C)OC(=O)CCCCCCC/C=C\CCCCCCCC (stereo not drawn) [DOTAP, 1,2-dioleoyl-3-trimethylammonium propane] the “DQ-OVA uptake and processing, mean green fluorescence of CD11c positive cells” value ([2]; 37° C., 1 hr, versus DQ-OVA alone) was “enhances antigen uptake and processing by DC”, the “cross presentation of OVA to CD8+ T cells, CPM of 3H-thymidine uptake” value (BMDC / OT-1 CD8+ T cells; BMDC with whole OVA, 1 hr at 37° C., washed, fixed) was “cross presented antigen to the CD8+ T cells much more strongly than DC incubated with OVA without cationic lipid” and the “uptake and cross-presentation of OVA” value (BMDC / OT-1 CD8+ T cells) was “facilitated enhanced uptake and cross-presentation of OVA by BMDC; also recorded: showed some enhancement”.
For CCCCCCCC/C=C\CCCCCCCC(=O)OCC(C[N+](C)(C)C)OC(=O)CCCCCCC/C=C\CCCCCCCC (stereo not drawn) [S-DOTAP, 1,2-dioleoyl-3-trimethylammonium propane], the “uptake and cross-presentation of OVA” value (BMDC / OT-1 CD8+ T cells) is listed as “also facilitated uptake and presentation; also recorded: identical ability to promote antigen uptake, internalization and processing, as well as maturation of dendritic cells”, the “HPV-specific CD8+ T-cell response (ELISPOT, RF9 stimulation)” value [3] is listed as “did not result in an enhanced CD8+ T-cell response beyond what was seen with the peptide alone” and the “in vivo antigen-specific immune responses” value [1] is listed as “neither S-DOTAP nor DDA induced effective in vivo antigen-specific immune responses”.
